Measurements from patent publication US20100317525A1, “HERBICIDAL MIXTURE” (E.I. DU PONT DE NEMOURS AND COMPANY, priority 2007, published 2010).

System: Digitaria nuda
Experiment: Test A: postemergence greenhouse control of Digitaria nuda, visual rating
Type: in vivo
Conditions: postemergence 3-4-leaf stage, 7 DAT, mean of 3 replicates
Method: Plastic pots (10-cm square) were filled to the rim with a sandy loam soil having pH of 6.1, 1.4% organic matter and a cation exchange capacity (CEC) of 5.7 milliequivalents per 100 grams (meq/100 g). The soil was tamped firm to a uniform level of 2.5 cm below the rim of each pot. A measured amount of seeds of Digitaria nuda were scattered on the soil surface. Seeded pots were covered with approximately 50 mL of the same planting soil and tamped. The pots were then placed in a greenhouse and watered thoroughly 2-3 times daily as needed. A balanced fertilizer solution was injected into the watering system to provide 218 ppm of nitrogen. Artificial lighting was used to supplement natural light to produce a 14 h photoperiod. Greenhouse temperatures were targeted for 28.8 ° C. in the day and 19.8 ° C. at night.
When the D. nuda plants reached the 3-4-leaf growth stage (8-12 cm height), the pots were sorted into test units for herbicide application. Treatments were replicated three times. The herbicides were diluted in a measured amount of water and then mixed using a magnetic stir bar for 10 minutes before aliquots were taken to make individual treatment solutions. Diuron was in the form of the DuPont product KARMEX, which is a wettable granule formulation containing 80 weight % active ingredient. Hexazinone was in the form of the DuPont product VELPAR DF, which is a wettable granule formulation containing 75 weight % active ingredient. A mixture of hexazinone and diuron in 11:39 weight ratio was in the form of the DuPont product VELPAR-K (VELPAR-K4) 60 WG, which is a wettable granule formulation containing 13.2 weight % hexazinone and 46.8 weight % diuron active ingredients. A mixture of hexazinone and diuron in 1:8 weight ratio was in the form of the DuPont product VELPAR-K8 (marketed in Brazil as ADVANCE Herbicide), which is a wettable granule formulation containing 6.7 weight % hexazinone and 53.3 weight % diuron active ingredients. Tembotrione was in the form of the Bayer product LAUDIS, which was a suspension concentrate formulation stated to contain […] tembotrione active ingredient and 22 g isoxadifen-ethyl (a herbicide safener) per liter. These products were applied alone and in combinations. Application rates of diuron and hexazinone were 1800 and 210 g ai ha^−1, respectively. The application rates of the VELPAR-K4 mixture of hexazinone and diuron (132 g a.i. hexazinone+468 g a.i. diuron/kg of formulated product) and VELPAR-K8 mixture of hexazinone and diuron (67 g a.i. hexazinone+533 g a.i. diuron/kg of formulated product) were 1200 and 1800 g total a.i. ha^−1, respectively. Application rates of tembotrione were 30, 60, 90 and 120 g a.i./ha. (“a.i.” means active ingredient.) The pots were then sprayed through a T-Jet 8002E nozzle using a stationary belt sprayer calibrated to deliver 281 L/ha at 276 kPa. Treatments were replicated three times.
The plants were returned to the greenhouse, and then control was visually evaluated relative to the control plants at 7 days after treatment (DAT). A numerical percent rating system was used to describe the response observed from each treatment on a scale of 0 to 100%, in which 0% indicates no response and 100% indicates plant death or near death. The reported results are the mean averages of the three replicates.
Colby's Equation was used to determine the herbicidal effects expected from the mixtures. […]

Row | SMILES | % Control Observed (diuron 1800 g a.i./ha (as KARMEX)) [%] | % Control Observed (tembotrione 30 g a.i./ha (as LAUDIS)) [%] | % Control Observed (tembotrione 60 g a.i./ha (as LAUDIS)) [%] | % Control Observed (tembotrione 90 g a.i./ha (as LAUDIS)) [%] | % Control Observed (tembotrione 120 g a.i./ha (as LAUDIS)) [%]
1 | CN(C)C(=O)Nc1ccc(Cl)c(Cl)c1 [Diuron, N′(3,4-dichlorophenyl)-N,N-dimethylurea] | 20 |  |  |  | 
2 | CS(=O)(=O)c1ccc(C(=O)C2C(=O)CCCC2=O)c(Cl)c1COCC(F)(F)F [Tembotrione, 2-[2-chloro-4-(methylsulfonyl)-3-[(2,2,2-trifluoroethoxy)methyl]-benzoyl]-1,3-cyclohexanedione] |  | 37 | 40 | 53 | 60
